Measured values reported in patent US20260285853A1, “COMPOUNDS AND METHODS FOR MODULATING SPLICING” (REMIX THERAPEUTICS INC., priority 2023, published 2026).
Like-named read-outs stand apart in the source and are kept apart here.

Columns and labels:
Format in all cases: cell-based
MYB mRNA [1] = assay: Splicing RT-qPCR assay (THP), Table 2A
HTT mRNA [2] = assay: Gene panel canonical junction qPCR assay, decrease in CJ mRNA, Table 3
Procedure, shortened: (§1)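 Eleven-point dose responses from 10 uM final, 24 h, DMSO ≤0.25%, in A673 or K562 cells. Relative quantification by 2^(−ΔΔCt) against housekeeper and vehicle was converted to percent response over fixed ΔCt windows and fitted to yield IC50.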

MYB mRNA [3] = assay: as above
Procedure, shortened: as §1

HTT mRNA [4] = assay: Splicing RT-qPCR assay (THP), Table 2A
[5] = tested on: SH-SY5Y (human neuroblastoma) cells; assay: Cell viability, Cell Titer Glo 2.0 assay; settings: read-out: Viability SHSY5Y.3 GI50
Procedure, shortened: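 Following a 72 h incubation (37 °C, 5% CO2, 0.1% DMSO final), compound toxicity toward SH-SY5Y cells was quantified by CellTiter-Glo 2.0.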

[6] = Table 2A, THP, MYB alternative junction (AJ) mRNA, read-out: MYB AJ (AC50, increase in alternative junction mRNA)
[7] = Table 2A, THP, MYB canonical junction (CJ) mRNA, read-out: MYB CJ (IC50, decrease in canonical junction mRNA)
[8] = decrease in CJ mRNA levels, canonical junction qPCR, gene panel
[9] = Table 2A, THP, HTT alternative junction (AJ) mRNA, read-out: HTT AJ (AC50, increase in alternative junction mRNA)
[10] = Table 2A, THP, HTT canonical junction (CJ) mRNA, read-out: HTT CJ (IC50, decrease in canonical junction mRNA)
[11] = Table 2A (THP), AJ mRNA increase, read-out: MYB AJ (increase in alternative junction mRNA, AC50)
[12] = Table 2A (THP), CJ mRNA decrease, read-out: MYB CJ (decrease in canonical junction mRNA, IC50)
[13] = decrease in canonical junction (CJ) mRNA, gene panel qPCR, Table 3
[14] = Table 2A (THP), AJ mRNA increase, read-out: HTT AJ (increase in alternative junction mRNA, AC50)
[15] = Table 2A (THP), CJ mRNA decrease, read-out: HTT CJ (decrease in canonical junction mRNA, IC50)

Row | IC50 (MYB mRNA [1]; [7]) | IC50 (HTT mRNA [2]; [8]) | IC50 (MYB mRNA [3]; [8]) | IC50 (HTT mRNA [4]; [10]) | GI50 [5] | IC50 (MYB mRNA [1]; [12]) | IC50 (HTT mRNA [2]; [13]) | IC50 (MYB mRNA [3]; [13]) | IC50 (HTT mRNA [4]; [15]) | SMILES | AC50 (MYB mRNA [1]; [6]) | AC50 (HTT mRNA [4]; [9]) | AC50 (MYB mRNA [1]; [11]) | AC50 (HTT mRNA [4]; [14])
1 | > 10000 nM | > 10000 nM | > 10000 nM | > 10000 nM | > 10000 nM |  |  |  |  | CCNC1CCN(c2ccc(C(=O)Nc3cc(CS(=O)(=O)N(C)C)c4nn(C)cc4c3)c3nn(C)cc23)CC1 [Compound 874] | > 10000 nM | > 10000 nM |  | 
2 |  |  |  |  | > 10000 nM | > 10000 nM | > 10000 nM | > 10000 nM | > 10000 nM | CCNC1CCN(c2ccc(C(=O)Nc3cn4cc(CC)nc(C)c4n3)c3nn(C)cc23)CC1 [Compound 311, N-(6-ethyl-8-methylimidazo [1,2-a]pyrazin-2-yl)-4-(4-(ethylamino)piperidin-1-yl)-2-methyl-2H-indazole-7-carboxamide 2,2,2-trifluoroacetate] |  |  | > 10000 nM | > 10000 nM
3 | > 10000 nM | > 10000 nM | > 10000 nM | > 10000 nM | > 10000 nM |  |  |  |  | Cc1cn2cc(NC(=O)c3ccc(N4CCC(NC5CC5)CC4)c4cn(C)nc34)nc2c(CN(C)S(C)(=O)=O)n1 [Compound 703, 4-(4-(cyclopropylamino)piperidin-1-yl)-2-methyl-N-(6-methyl-8-((N-methylmethylsulfonamido)methyl)imidazo[1,2-a]pyrazin-2-yl)-2H-indazole-7-carboxamide 2,2,2-trifluoroacetate] | > 10000 nM | > 10000 nM |  | 
4 |  |  |  |  | > 10000 nM | 1000 to 10000 nM | > 10000 nM | 1000 to 10000 nM | > 10000 nM | COc1cc2nn(C)cc2cc1NC(=O)c1ccc(N2CCC3(CCNC3)C2)c2cn(C)nc12 (stereo not shown) [Compound 513] |  |  | 1000 to 10000 nM | > 10000 nM
5 | > 10000 nM | > 10000 nM | > 10000 nM | > 10000 nM | > 10000 nM |  |  |  |  | Cc1cn2cc(NC(=O)c3ccc(N4C[C@@H](C)N[C@@H](C)C4)c4c3OC(C)(C)O4)cc(F)c2n1 [Compound 656, 7-[(3S,5R)-3,5-dimethylpiperazin-1-yl]-N-(8-fluoro-2-methyl-imidazo[1,2-a]-pyridin-6-yl)-2,2-dimethyl-1,3-benzodioxole-4-carboxamide] | > 10000 nM | > 10000 nM |  | 
6 | 1000 to 10000 nM | 1000 to 10000 nM | 1000 to 10000 nM | 1000 to 10000 nM | 1000 to 10000 nM |  |  |  |  | COc1cc2c(N3CCC(NC4CC4)CC3)ccc(C(=O)Nc3cc(C)c4nc(C)cn4n3)n2n1 [Compound 695, 4-[4-(cyclopropylamino)-1-piperidyl]-N-(2,8-dimethylimidazo[1,2-b]pyridazin-6-yl)-2-methoxy-pyrazolo[1,5-a]pyridine-7-carboxamide] | 1000 to 10000 nM | 1000 to 10000 nM |  | 
7 | 1000 to 10000 nM | > 10000 nM | 1000 to 10000 nM | > 10000 nM | 1000 to 10000 nM |  |  |  |  | COc1cc2c(N3CCC(NC4CC4)CC3)ccc(C(=O)Nc3cc(CNS(C)(=O)=O)c4nc(C)cn4c3)n2n1 [Compound 838] | 1000 to 10000 nM | > 10000 nM |  | 
8 |  |  |  |  | 100 to 1000 nM | 100 to 1000 nM | 100 to 1000 nM | 100 to 1000 nM | 100 to 1000 nM | CCNCC1CCN(c2cc(F)c(C(=O)Nc3cc4cn(C)nc4cc3OC)c3nn(C)cc23)C1 (stereo not shown) [Compound 464, 4-(3-[(ethylamino)methyl]pyrrolidin-1-yl)-6-fluoro-N-(6-methoxy-2-methylindazol-5-yl)-2-methylindazole-7-carboxamide] |  |  | 100 to 1000 nM | 100 to 1000 nM
9 | > 10000 nM | > 10000 nM | > 10000 nM | > 10000 nM | 1000 to 10000 nM |  |  |  |  | Cc1cn2cc(NC(=O)c3ccc(N4CCC(NC5CC5)CC4)c4cn(C)nc34)nc2c(CC2CCOC2)n1 (stereo not shown) [Compound 722, 4-[4-(cyclopropylamino)-1-piperidyl]-2-methyl-N-[6-methyl-8-(tetrahydrofuran-3-ylmethyl)imidazo[1,2-a]pyrazin-2-yl]indazole-7-carboxamide 2,2,2-trifluoroacetate] | > 10000 nM | > 10000 nM |  | 
10 |  |  |  |  | 1000 to 10000 nM | > 10000 nM | > 10000 nM | > 10000 nM | > 10000 nM | COc1cc2nccn2cc1NC(=O)c1ccc(N2CCC(NC3CC3)CC2)c2cn(C)nc12 [Compound 574, 4-[4-(cyclopropylamino)-1-piperidyl]-N-(7-methoxy-imidazo[1,2-a]pyridin-6-yl)-2-methylindazole-7-carboxamide] |  |  | > 10000 nM | > 10000 nM
11 | > 10000 nM | > 10000 nM | > 10000 nM | > 10000 nM | > 10000 nM |  |  |  |  | Cc1cn2cc(NC(=O)c3ccc(N4CCC(NC5CC5)CC4)c4cn(C)nc34)nc2c(CNS(C)(=O)=O)n1 [Compound 694, 4-(4-(cyclopropylamino)piperidin-1-yl)-2-methyl-N-(6-methyl-8-(methylsulfonamidomethyl)imidazo[1,2-a]pyrazin-2-yl)-2H-indazole-7-carboxamide 2,2,2-trifluoroacetate] | > 10000 nM | > 10000 nM |  | 
12 |  |  |  |  | 100 to 1000 nM | 100 to 1000 nM | 100 to 1000 nM | 100 to 1000 nM | 100 to 1000 nM | Cc1cn2cc(NC(=O)c3c(F)cc(N4CC5(CNC5)C4)c4cn(C)nc34)nc2c(C)n1 [Compound 470, 4-(2,6-diazaspiro[3.3]heptan-2-yl)-N-(6,8-dimethyl-imidazo-[1,2-a]-pyrazin-2-yl)-6-fluoro-2-methyl-indazole-7-carboxamide] |  |  | 100 to 1000 nM | 100 to 1000 nM
13 |  |  |  |  | > 10000 nM | 100 to 1000 nM | 1000 to 10000 nM | 100 to 1000 nM | 1000 to 10000 nM | CCNC1CCN(c2ncc(C(=O)Nc3cn4cc(C)nc(C)c4n3)c3nn(C)cc23)CC1 [Compound 394, N-(6,8-dimethylimidazo[1,2-a]pyrazin-2-yl)-4-[4-(ethylamino)-1-piperidyl]-2-methyl-pyrazolo-[4,3-c]-pyridine-7-carboxamide] |  |  | < 100 nM | 1000 to 10000 nM
14 | 100 to 1000 nM | 100 to 1000 nM | 100 to 1000 nM | 100 to 1000 nM | 100 to 1000 nM |  |  |  |  | COc1nc2c(C(=O)Nc3cc(F)c4nn(C)cc4c3)ccc(N3CC[C@H](NC(C)(C)C)C3)c2s1 [Compound 770] | 100 to 1000 nM | 100 to 1000 nM |  | 
15 |  |  |  |  | 1000 to 10000 nM | > 10000 nM | > 10000 nM | > 10000 nM | > 10000 nM | Cc1cc2c(nc(NC(=O)c3ccc(N4CCC(NC5CC5)CC4)c4cn(C)nc34)n2C)c(C)n1 [Compound 597, 4-[4-(cyclopropylamino)-1-piperidyl]-2-methyl-N-(1,4,6-trimethylimidazo[4,5-c]-pyridin-2-yl)indazole-7-carboxamide] |  |  | > 10000 nM | > 10000 nM
16 | 100 to 1000 nM | 100 to 1000 nM | 100 to 1000 nM | 100 to 1000 nM | 100 to 1000 nM |  |  |  |  | Cc1cn2nc(NC(=O)c3c(F)cc(N4CCC(NC5CC5)CC4)c4nc(C)sc34)cc(C)c2n1 [Compound 665, 4-[4-(cyclopropyl-amino)-1-piperidyl]-N-(2,8-dimethylimidazo[1,2-b]-pyridazin-6-yl)-6-fluoro-2-methyl-1,3-benzothiazole-7-carboxamide] | 100 to 1000 nM | 100 to 1000 nM |  | 
17 |  |  |  |  | 1000 to 10000 nM | 1000 to 10000 nM | > 10000 nM | 1000 to 10000 nM | > 10000 nM | Cc1cn2cc(NC(=O)c3ccc(N4CCC5NCCC5C4)c4cn(C)nc34)nc2c(C)n1 (stereo not shown) [Compound 531] |  |  | 1000 to 10000 nM | > 10000 nM
18 |  |  |  |  | > 10000 nM | 1000 to 10000 nM | > 10000 nM | 1000 to 10000 nM | > 10000 nM | CCNC1CCN(c2cc(F)c(C(=O)Nc3nc4c(C)nc(C)cc4o3)c3nn(C)cc23)CC1 [Compound 380, N-(4,6-dimethyl-oxazolo-[4,5-c]-pyridin-2-y1)-4-[4-(ethylamino)-1-piperidy1]-6-fluoro-2-methyl-indazole-7-carboxamide] |  |  | 1000 to 10000 nM | > 10000 nM
19 | < 100 nM | 100 to 1000 nM | < 100 nM | 100 to 1000 nM | < 100 nM |  |  |  |  | COc1nc2c(C(=O)Nc3cc(F)c4nn(C)cc4c3)ccc(N3C[C@H](C)N[C@@H](C)C3)c2o1 [Compound 682, 7-[(3S,5S)-3,5-dimethylpiperazin-1-yl]-N-(7-fluoro-2-methyl-indazol-5-yl)-2-methoxy-1,3-benzoxazole-4-carboxamide] | < 100 nM | 100 to 1000 nM |  | 
